The nature of data set [1]: Cleavage of probe by incubation with Na2S2O4, LC-MS analysis. Format: physicochemical. The following applies: 100 mM Na2S2O4, after 30 minutes. The procedure:
We initially tested the cleavage of SV1 (shown in FIG. 3) by incubation with 100 mM Na2S2O4. After 30 minutes full cleavage of SV1 into the two aniline fragments 3 and 4 (FIG. 3) was observed using LC-MS analysis.

In another data set the target is T1, Cathepsin B (Rattus norvegicus, UniProt P00787).
T1 construct: from tissue; host or cells: rat liver homogenate
Put plainly: Proteases targeted by SV1 after chemoselective release from immobilized streptavidin, LC-MS/MS. The following applies: rat liver homogenate, SV1 10 μM 2 h. Format: biochemical. The procedure:
(§1) Rat liver homogenate (20 mg of total protein) in reaction buffer was incubated with SV1 (10 μM) for 2 h. Unreacted probe was removed by filtration over a PD10 column (Amersham Bioscience) and the eluate (in PBS buffer) was shaken with immobilized streptavidin slurry (20 μL) for 1 h. The streptavidin beads were subsequently washed with PBS buffer containing 1M NaCl, 0.1% SDS and 10% EtOH (3× each). Proteases labeled by the probe were cleaved off with Na2S2O4 using the above-described procedure. The pooled supernatant was denatured by incubating with 1 volume of 12 M urea. Next, disulfide bonds were reduced with DTT (10 mM, 60 minutes) and free cysteines were capped with iodoacetamide (40 mM, 60 minutes). Unreacted iodoacetamide was neutralized by addition of an equal amount of DTT and the concentration of urea was lowered to 2 M by addition of water. Trypsin digestion was performed overnight at 37° C. (0.1 μg of trypsin). Digestion was stopped by addition of formic acid (5% final concentration) and digested samples were desalted using a C18 Zip-Tip (Millipore) prior to LC/MS-MS analysis. Data was analyzed by the Sequest algorithm (Novatia) and evaluated by Scaffold (Proteome Software Inc.). Peptides with probability value>95% (in Scaffold) were considered positive hits.
(§2) Although the optimized release of probe-labeled proteins from streptavidin using dithionite is slightly lower in efficiency than under denaturing conditions, this method is likely to result in less background signals leading to easier identification of the target proteases. In addition the direct on-bead cleavage method using a mass spectrometry-compatible buffer allows direct in solution digestion of samples followed by MS analysis. To confirm these issues we analyzed the samples in FIG. 2 by direct solution digestion with trypsin followed by LC-MS/MS analysis of all peptide products. This analysis identified multiple peptides from each of the expected cathepsin proteases without any contamination by background proteins (Table 1). […] A more comprehensive and detailed analysis is reported in Fonović et al., Proteomic evaluation of chemically cleavable activity based probes,” Mol. and Cell Proteomics Manuscript M700-124-MCP200 (published online Jul. 5, 2007).

A further data set concerns the target T2, Cathepsin C (Rattus norvegicus, UniProt P80067).
T2 construct: from tissue; host or cells: rat liver homogenate
The data set is described as above. In kind it is biochemical. The conditions noted are these: rat liver homogenate, SV1 10 μM 2 h. The procedure:
as §1, §2

For another data set, the target named is T3, Cathepsin H (Rattus norvegicus, UniProt P00786).
T3 construct: from tissue; host or cells: rat liver homogenate
Described as above. Format: biochemical. The following applies: rat liver homogenate, SV1 10 μM 2 h. The procedure: as §1, §2

The target of a further data set is T4, Cathepsin Z (Rattus norvegicus, UniProt Q9R1T3).
T4 construct: from tissue; host or cells: rat liver homogenate
Described as above. In kind it is biochemical. The conditions noted are these: rat liver homogenate, SV1 10 μM 2 h. Here is the method:
as §1, §2

Data on 1 compound can be found in US8314215B2, “Mild chemically cleavable linker system” (The Board of Trustees of the Leland Stanford Junior …, priority 2006, dated 2012).

Structures are written as SMILES.

T4 sequence (Q9R1T3 64-306): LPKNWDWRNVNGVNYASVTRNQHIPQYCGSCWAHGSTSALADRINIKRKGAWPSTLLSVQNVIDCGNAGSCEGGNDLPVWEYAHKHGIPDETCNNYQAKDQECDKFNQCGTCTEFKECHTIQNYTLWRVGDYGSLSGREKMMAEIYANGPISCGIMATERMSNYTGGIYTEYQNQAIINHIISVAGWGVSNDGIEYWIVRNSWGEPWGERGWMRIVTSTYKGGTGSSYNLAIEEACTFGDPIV
T1 sequence (P00787 80-333): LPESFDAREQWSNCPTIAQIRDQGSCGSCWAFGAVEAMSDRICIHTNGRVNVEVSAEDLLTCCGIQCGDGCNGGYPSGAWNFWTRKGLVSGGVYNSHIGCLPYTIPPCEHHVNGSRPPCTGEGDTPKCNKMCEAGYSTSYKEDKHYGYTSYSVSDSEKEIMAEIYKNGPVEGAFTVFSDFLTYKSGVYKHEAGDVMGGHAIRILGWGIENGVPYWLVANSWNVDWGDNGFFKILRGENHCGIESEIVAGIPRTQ
T3 sequence (P00786 96-333): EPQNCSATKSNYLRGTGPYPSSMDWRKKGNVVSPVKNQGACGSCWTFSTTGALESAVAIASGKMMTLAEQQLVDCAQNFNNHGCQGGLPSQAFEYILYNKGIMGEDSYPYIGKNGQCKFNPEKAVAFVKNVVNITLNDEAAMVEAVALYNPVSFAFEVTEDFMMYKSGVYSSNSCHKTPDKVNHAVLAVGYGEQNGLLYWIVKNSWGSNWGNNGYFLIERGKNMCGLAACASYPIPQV
T2 sequence (P80067 25-462): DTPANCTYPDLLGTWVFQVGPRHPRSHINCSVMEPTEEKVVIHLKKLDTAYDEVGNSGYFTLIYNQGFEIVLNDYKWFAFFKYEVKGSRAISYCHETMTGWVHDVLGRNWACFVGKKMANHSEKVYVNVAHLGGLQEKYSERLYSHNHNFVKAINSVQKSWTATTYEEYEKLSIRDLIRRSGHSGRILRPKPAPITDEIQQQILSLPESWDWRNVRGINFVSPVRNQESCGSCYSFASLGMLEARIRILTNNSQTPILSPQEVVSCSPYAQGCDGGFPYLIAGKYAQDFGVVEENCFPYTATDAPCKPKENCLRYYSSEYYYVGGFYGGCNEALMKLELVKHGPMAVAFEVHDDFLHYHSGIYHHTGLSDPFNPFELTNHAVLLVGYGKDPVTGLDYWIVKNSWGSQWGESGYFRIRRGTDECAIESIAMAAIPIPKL

With `CCOC(=O)[C@H]1O[C@@H]1C(=O)N[C@@H](CC(C)C)C(=O)N[C@@H](Cc1ccc(O)cc1)C(=O)NCCc1ccc(O)c(N=Nc2ccc(C(=O)N[C@@H](CCCCNC(=O)CCCC[C@@H]3SC[C@@H]4NC(=O)N[C@@H]43)C(N)=O)cc2)c1` [SV1], the “cleavage into the two aniline fragments 3 and 4” value in data set [1] was “full cleavage”. Besides, the “Number of Identified peptides” value on Cathepsin B amounted to 2; on Cathepsin C, 3; on Cathepsin H, 5; on Cathepsin Z, 4. For the same compound, the Sequence coverage on Cathepsin B stood at 8%; on Cathepsin C, 16%; at Cathepsin H it was 29%; at Cathepsin Z, 32%.
